This note sets out measurements from patent US20240366648A1, “NAD-AUGMENTATION THERAPY FOR PARKINSON'S DISEASE” (Vestlandets Innovasjonsselskap AS (VIS), priority 2021, published 2024).

The structures appear in SMILES notation.

This assay deals with patients with PD. The experiment in a line: MDS-UPDRS / Hoehn & Yahr clinical rating, phase I trial. The format is in vivo, human. The protocol: A single-center, double-blinded, randomized, placebo-controlled phase I trial of oral NR supplementation in newly diagnosed patients with PD was conducted. […] Due to the early onset, this patient underwent genetic investigation with whole-exome sequencing and SNP-chip based genome-wide copy number variation analysis, which excluded pathogenic mutations in PD-related genes, including PINK1 and PRKN. screening. Patient recruitment, inclusion, and follow-up was carried out by a GCP certified investigator. Sample size of 30 participants was chosen based on previously reported brain metabolic network analyses. Thirty PD patients were randomly assigned (Block size 6, allocation 1:1) to 500 mg NR, provided in the form of nicotinamide riboside chloride ([…]® from Chromadex), or placebo twice per day, 12 hours apart, using the electronic Case Report Form (Viedoc.com). The drug containers were sequentially marked by an independent third party. The […]®) and placebo were provided by ChromaDex, USA. Each NR capsule contained 250 mg of NR. Placebo capsules contained microcrystalline cellulose. The vials and capsules containing NR and placebo were identical in shape, colour, and smell. Study drug compliance was calculated from counting returned number of study capsules and self-reporting. Participants, examining physicians, medical- and research personnel were blinded for the duration of the trial. Sample size was determined by comparing previous literature with respect to the primary objective. At screening for trial entry, candidates underwent physical and neurological examination, brain MRI, and […]. Eligible patients who entered the trial were assessed at baseline (visit 1, V1) and after four weeks of exposure to either NR or placebo (visit 2, V2). At both visits, patients underwent physical and neurological examination, including assessment by the Movement Disorder Society Unified Parkinson's Disease Rating Scale section I-IV (MDS-UPDRS), and biological sampling. MR-PET was performed within one week prior to visit 1, and at visit 2. All participants remained naïve for antiparkinson drugs for the duration of the trial. All clinical assessments were performed by a blinded movement disorders expert. Each patient was examined by the same neurologist at both visits. Methodological details on each procedure are provided below. Safety was monitored through routine clinical blood tests and registration of adverse events. Adverse events (AE) were recorded and scored by the investigative physician. […] The AE relation to the study drug was scored as (1) unrelated, (2) unlikely, (3) possible, (4) probable or (5) definitely. The between visit change ([visit 2]-[visit 1]) in MDS-UPDRS (total of subsections I-III; and individual subsections I, II and III) was compared between the NR and placebo groups using independent Student's t-test. In addition, the between visit change in MDS-UPDRS (total and subsections) within the NR, MRS-responder, and placebo groups was assessed by paired Student's t-test. For the 31P-MRS analyses, the change in measured metabolites between visit 1 and visit 2 was assessed in the placebo- and NR group using paired Student's t-test. In addition, the between-visit change in NAD/ATP-α was compared between the NR and placebo group by independent Student's t-test. For PET analyses, changes in network scores with treatment were evaluated for each group separately using paired Student's t-tests or permutation tests. Relationships between network values, NAD levels and MDS-UPDRS motor ratings or between treatment-related changes in these variables were evaluated using Pearson's product-moment correlations; Spearman rank-order correlation coefficients were computed for non-normal distributions of the variables. These statistical tests were performed using SPSS (SPSS Inc., Chicago, IL); results were considered significant for p≤0.05 (two-tailed). […]

[1] abbreviates: Visit 1 (baseline), MRS Responders N=10.
The mark [2] stands for this setting: Visit 1 (baseline), NR group N=15.
The mark [3] stands for this setting: Visit 2 (after four weeks), MRS Responders N=10.
[4] abbreviates: Visit 2 (after four weeks), NR group N=15.

In the case of `NC(=O)c1ccc[n+]([C@@H]2O[C@H](CO)[C@@H](O)[C@H]2O)c1` [NR, nicotinamide riboside], the “mean decrease in MDS-UPDRS between visits” value (MRS-responder subgroup (n=10), paired t-test p=0.071) worked out at 1.9±2.78. Also, where the note is “NR 1000 mg daily, one month”, the “clinical change as measured by the UPDRS scale” value was “mild clinical improvement” and the “motor symptoms in PD patients who received NR” value is on record as “no worsening of motor symptoms”. In addition, under setting [1], the “Hoehn & Yahr Stage, mean” value is 1.7; the “MDS-UPDRS I, mean score” value was 6.2; the “MDS-UPDRS II, mean score” value was determined as 6.4; the “MDS-UPDRS III, mean score” value is 29.6. The “Total score MDS-UPDRS (I-III), mean” value under setting [1] came out at 42.2. Moreover, under setting [2], the “Hoehn & Yahr Stage, mean” value is 1.8; the “MDS-UPDRS I, mean score” value came out at 6.3; the “MDS-UPDRS II, mean score” value came out at 7.9; the “MDS-UPDRS III, mean score” value is given as 31.1. Under setting [2], the “Total score MDS-UPDRS (I-III), mean” value is listed as 45.2. Under setting [3], the “Hoehn & Yahr Stage, mean” value was determined as 1.8; the “MDS-UPDRS I, mean score” value is 5.3; the “MDS-UPDRS II, mean score” value came out at 6.4; the “MDS-UPDRS III, mean score” value was 28.7. For the same compound, the “Total score MDS-UPDRS (I-III), mean” value under setting [3] was found to be 40.4. For the same compound, under setting [4], the “Hoehn & Yahr Stage, mean” value is given as 1.9; the “MDS-UPDRS I, mean score” value amounted to 5.4; the “MDS-UPDRS II, mean score” value is listed as 8.3; the “MDS-UPDRS III, mean score” value is given as 30.5. For the same compound, under setting [4], the “Total score MDS-UPDRS (I-III), mean” value is on record as 44.1. Further, where the note is “nine individuals with >10% increase in cerebral NAD, paired t-test p=0.017”, the “mean decrease in MDS-UPDRS between visits” value is on record as 2.33±2.35.
